Experimental data taken from ChEMBL document CHEMBL1135668, “Design, synthesis, structure-activity relationships, and molecular modeling studies of 2,3-diaryl-1,3-thiazolidin-4-ones as potent anti-HIV agents” (J Med Chem, 2002).
The source made the active and inactive calls. The rule behind the calls is not given here.

Experiments:
[1] = test system: Human immunodeficiency virus 1; test: Cytotoxic concentration (anti-HIV activity) required to reduce […] by 50% in MT-4 cells; format: functional; details: Human immunodeficiency virus 1, MT4
[2] = test system: Human immunodeficiency virus 1; test: Selectivity index as the ratio of CC50 to that of EC50 value in MT cells; format: functional
[3] = test system: Human immunodeficiency virus 1; test: Effective concentration (anti-HIV activity) required to reduce HIV-1 induced cytopathic effect by 50% in MT-4 cells; format: functional, organism-based; details: Human immunodeficiency virus 1, MT4
[4] = test system: Human immunodeficiency virus 1; test: (§1) Concentration required to reduced HIV-1-induced cytopathic effect by 50% in CEM cells; format: functional; details: Human immunodeficiency virus 1, CCRF-CEM
[5] = Selectivity index as the ratio of CC50 to that of EC50 value in CEM cells; format: functional, CCRF-CEM
[6] = test system: Human immunodeficiency virus 1; test: Effective concentration (anti-HIV activity) required to reduce HIV-1 induced cytopathic effect by 50%in CEM cells; format: functional, organism-based; details: Human immunodeficiency virus 1, CCRF-CEM
[7] = biological target: Human immunodeficiency virus type 1 reverse transcriptase (Human immunodeficiency virus 1, UniProt Q72547); test: HIV-1 reverse transcriptase (RT) activity using Poly (rC)/oligo (dG) as template/primer and [3H]dGTP
[8] = test system: Human immunodeficiency virus 1; test: Effective concentration (anti-HIV activity) required to reduce HIV-1 induced cytopathic effect by 50% in MT-4 cells; NA is Not Active; format: functional, organism-based; details: mt4
[9] = test system: Human immunodeficiency virus 1; test: Effective concentration (anti-HIV activity) required to reduce HIV-1 induced cytopathic effect by 50% in MT-4 cells; NA is Not Active.; format: functional, organism-based; details: mt4
[10] = test system: Human immunodeficiency virus 1; test: Concentration required to reduced HIV-1-induced cytopathic effect by 50%in CEM cells; format: functional; details: Human immunodeficiency virus 1, CCRF-CEM
[11] = test system: Human immunodeficiency virus 1; test: Anti-HIV-1 activity against mutant HIV-1 strain(188 Tyr-His) in CEM cells; format: functional, organism-based; details: Human immunodeficiency virus 1, CCRF-CEM
[12] = test system: Human immunodeficiency virus 1; test: Anti-HIV-1 activity against mutant HIV-1 strain(181 Tyr-Cys) in CEM cells; format: functional, organism-based; details: Human immunodeficiency virus 1, CCRF-CEM
[13] = test system: Human immunodeficiency virus 1; test: Anti-HIV-1 activity against mutant HIV-1 strain (100Leu-Ile) in CEM cells; format: functional, organism-based; details: Human immunodeficiency virus 1, CCRF-CEM
[14] = test system: Human immunodeficiency virus 1; test: Anti-HIV-1 activity against mutant HIV-1 strain (103Lys-Asn) in CEM cells; format: functional, organism-based; details: Human immunodeficiency virus 1, CCRF-CEM
[15] = test system: Human immunodeficiency virus 1; test: Anti-HIV-1 activity against mutant HIV-1 strain (HIV-1IIIB) in CEM cells; format: functional, organism-based; details: Human immunodeficiency virus 1, CCRF-CEM
[16] = test system: Human immunodeficiency virus 1; test: Anti-HIV-1 activity against mutant HIV-1 strain (138Glu-Lys) in CEM cells; format: functional, organism-based; details: Human immunodeficiency virus 1, CCRF-CEM
[17] = test system: Human immunodeficiency virus 1; test: as §1; format: functional, organism-based; details: Human immunodeficiency virus 1, CCRF-CEM
[18] = test system: Human immunodeficiency virus 1; test: Concentration required to reduce CEM cell viability by 50%; details: Human immunodeficiency virus 1, CCRF-CEM
[19] = test system: Human immunodeficiency virus 1; test: Effective concentration (anti-HIV activity) required to reduce HIV-1 induced cytopathic effect by 50%in CEM cells; NA is Not Active.; format: functional, organism-based; details: ccrf-cem
[20] = biological target: Human immunodeficiency virus type 1 reverse transcriptase (Human immunodeficiency virus 1) (UniProt Q72547); test: HIV-1 reverse transcriptase (RT) enzymatic activity was evaluated using Poly (rC)/oligo (dG) as template/primer and [3H]dGTP as radio labeled substrate;NA is not active.
[21] = test system: Human immunodeficiency virus 1; test: Concentration required to reduce CEM cell viability by 50%; details: Human immunodeficiency virus 1, CCRF-CEM; remark: listed apart in the source
[22] = biological target: Human immunodeficiency virus type 1 reverse transcriptase (Human immunodeficiency virus 1) (UniProt Q72547); test: HIV-1 reverse transcriptase (RT) enzymatic activity was evaluated using Poly (rC)/oligo (dG) as template/primer and [3H]dGTP as radio labelled substrate
[23] = Selectivity index as the ratio of CC50 to that of EC50 value.; format: functional

| SMILES | CC50 [1] [µM] | Selectivity index [2] | EC50 [3] [nM] | Selectivity index [5] | EC50 [6] [nM] | IC50 [7] [µM] | further results |
| --- | --- | --- | --- | --- | --- | --- | --- |
| Cc1ccc(N2C(=O)CSC2c2c(F)cccc2F)nc1 (stereo unspecified) | 202 | 39.3 | 5130 | – | – | – | – |
| Cc1cc(C)nc(N2C(=O)CSC2c2c(F)cccc2Cl)c1 (stereo unspecified) | 41.6 | 986 | 42 | – | – | – | – |
| O=C1CSC(c2c(Cl)cccc2Cl)N1c1ccc(Cl)cn1 (stereo unspecified) | 19.2 | 11 | 1780 | 17 | 1860 | – | CC50 [4]: 31.1 µM |
| Cc1cc(C)nc(N2C(=O)CSC2c2c(F)cccc2F)c1 (stereo unspecified) | 43.4 | 735 | 59 | >=800 | 78 | 4.12 | CC50 [4]: ≥ 62.4 µM |
| O=C1CSC(c2c(Cl)cccc2Cl)N1c1ccc(Br)cn1 (stereo unspecified) | 28.2 | 18.6 | 1510 | 20 | 1310 | 56.6 | CC50 [4]: 26 µM |
| O=C1CSC(c2c(Cl)cccc2Cl)N1c1cccnc1 (stereo unspecified) | 23.4 | – | – | – | – | – | EC50 [8]: Not Active |
| O=C1CSC(c2c(Cl)cccc2Cl)N1c1ccncc1 (stereo unspecified) | 10 | – | – | – | – | – | EC50 [9]: Not Active |
| Cc1ccnc(N2C(=O)CSC2c2c(F)cccc2F)c1 (stereo unspecified) | 242 | 976 | 248 | – | – | 2.84 | – |
| O=C1CSC(c2c(F)cccc2F)N1c1ccccn1 (stereo unspecified) | > 427 | >500 | 855 | – | – | – | – |
| O=C1CSC(c2c(Cl)cccc2Cl)N1c1ccccn1 (stereo unspecified) | 38.5 | 216.3 | 178 | – | – | – | – |
| O=C1CSC(c2c(F)cccc2Cl)N1c1ccccn1 (stereo unspecified) | 41.7 | 150 | 278 | 791 | 242 | – | CC50 [10]: 191 µM |
| Cc1cccc(N2C(=O)CSC2c2c(F)cccc2F)n1 (stereo unspecified) | 126 | 1536 | 82 | – | – | 2.9 | EC50 [11]: ≥ 13 µM; EC50 [12]: ≥ 13 µM; EC50 [13]: 750 nM; EC50 [14]: 35.9 µM; EC50 [15]: 117 nM; EC50 [16]: 390 nM |
| O=C1CSC(c2c(F)cccc2Cl)N1c1cccc(Br)n1 (stereo unspecified) | 30.7 | 484 | 64 | – | – | – | – |
| O=C1CSC(c2c(F)cccc2Cl)N1c1ccc(Br)cn1 (stereo unspecified) | 30.7 | 25 | 1240 | – | – | – | – |
| Cc1cccc(N2C(=O)CSC2c2c(Cl)cccc2Cl)n1 (stereo unspecified) | 285 | 6470 | 44 | – | – | 2.24 | EC50 [11]: 16.2 µM; EC50 [13]: 150 nM; EC50 [14]: ≥ 60 µM; EC50 [15]: 73 nM; EC50 [16]: 117 nM |
| Cc1cccc(N2C(=O)CSC2c2c(F)cccc2Cl)n1 (stereo unspecified) | 31.9 | 601 | 53 | 1108 | 40 | 2.85 | CC50 [10]: 44.3 µM |

| SMILES | CC50 [1] [µM] | Selectivity index [2] | EC50 [3] [nM] | Selectivity index [5] | EC50 [6] [nM] | IC50 [7] [µM] | further results |
| --- | --- | --- | --- | --- | --- | --- | --- |
| O=C1CSC(c2c(Cl)cccc2Cl)N1c1cccc(Br)n1 (stereo unspecified) | 67.4 | 248 | 272 | >1431 | 173 | – | CC50 [10]: > 248 µM |
| Cc1ccc(N2C(=O)CSC2c2c(Cl)cccc2Cl)nc1 (stereo unspecified) | 24.9 | 17.7 | 1410 | 24 | 1320 | 42.4 | EC50 [17]: 31.2 µM |
| O=C1CSC(c2c(F)cccc2F)N1c1ccc(Cl)cn1 (stereo unspecified) | 29.8 | 4.2 | 7190 | 11 | 4130 | 67 | CC50 [18]: 47.1 µM |
| Cc1ccnc(N2C(=O)CSC2c2c(F)cccc2Cl)c1 (stereo unspecified) | 33.9 | 343 | 99 | 525 | 108 | 4.12 | CC50 [4]: 56.7 µM |
| Cc1cccnc1N1C(=O)CSC1c1c(Cl)cccc1Cl (stereo unspecified) | 42.6 | – | – | – | – | – | EC50 [9]: Not Active |
| O=C1CSC(c2c(F)cccc2F)N1c1ccncc1 (stereo unspecified) | 33.9 | – | – | – | – | – | EC50 [19]: Not Active; IC50 [20]: inactive; CC50 [18]: 284 µM; EC50 [9]: Not Active |
| O=C1CSC(c2c(F)cccc2F)N1c1ccc(Br)cn1 (stereo unspecified) | 36.1 | 7.4 | 4850 | 18 | 2500 | 61.4 | CC50 [18]: 45.8 µM |
| O=C1CSC(c2c(F)cccc2F)N1c1cccc(Br)n1 (stereo unspecified) | 32 | 1066 | 30 | >8980 | 30 | – | CC50 [21]: > 269 µM; EC50 [11]: 1.02 µM; EC50 [12]: 1.88 µM; EC50 [13]: 940 nM; EC50 [14]: > 11 µM; IC50 [22]: 910 nM; EC50 [15]: 26 nM; EC50 [16]: 73 nM |
| Cc1cc(C)nc(N2C(=O)CSC2c2c(Cl)cccc2Cl)c1 (stereo unspecified) | 64.1 | 712 | 90 | >=2178 | 130 | – | CC50 [18]: ≥ 283 µM |
| Cc1ccnc(N2C(=O)CSC2c2c(Cl)cccc2Cl)c1 (stereo unspecified) | > 368 | >2500 | 147 | – | – | – | – |
| Cc1cccnc1N1C(=O)CSC1c1c(F)cccc1F (stereo unspecified) | > 319 | >6 | 53500 | – | – | – | – |
| O=C1CSC(c2c(Cl)cccc2Cl)N1c1ccccc1 (stereo unspecified) | 38.1 | 95 | 401 | – | – | – | – |
| c1ccc2[nH]c(-c3cscn3)nc2c1 [THIABENDAZOLE] | 19.2 | 54.5 | 352 | 45 | 1100 | 14.6 | EC50 [11]: 4.16 µM; EC50 [12]: 13.8 µM; EC50 [13]: 3120 nM; CC50 [4]: 50 µM; EC50 [14]: 15.6 µM; EC50 [15]: 1390 nM; EC50 [16]: 1730 nM |
| O=C1CSC(c2c(F)cccc2Cl)N1c1ccc(Cl)cn1 (stereo unspecified) | 29.4 | – | 2130 | – | – | – | Selectivity index [23]: 14 |
| O=C1CSC(c2c(F)cccc2F)N1c1cccnc1 (stereo unspecified) | > 427 | – | 95100 | – | – | – | Selectivity index [23]: > 4.5 |
